# Measurements taken from article PMC8291587, “Guanidine Derivatives: How Simple Structural Modification of Histamine H3R Antagonists Has Led to the Discovery of Potent Muscarinic M2R/M4R Antagonists” (ACS Chemical Neuroscience, 2021).
# “And” between values parts separate entries of the source, which are not always exact repeats. Identical values can stand only once.
# Tested on: M2R/M3R
# Experiment: Ex vivo screening of muscarinic M2R/M3R antagonists on isolated guinea pig ileum (methacholine-induced contraction)
# Details: methacholine as agonist
# Description: Another group of guinea pig intestinal receptors able to regulate smooth muscle contraction is that of the muscarinic receptors, including M2R and M3R. All compounds were tested on the muscarinic receptors using the same animal model. This approach is similar to measuring histamine H1R antagonist activity. Methacholine was used as a receptor agonist, while 1,1-dimethyl-4-diphenylacetoxypiperidinium iodide (4-DAMP) was used as a reference M3R antagonist. As methacholine is not selective according to M2R and M3R, it is not possible to precisely specify which one was responsible for the effect observed on the tissue preparations. Some authors often attribute the results to the minor M3R subtype (gpM2R:M3R = 4:1 or 5:1), which is generally associated with the contractions,[38] but such an overinterpretation may be misleading, as indicated by our further hM1R-hM5R radioligand binding assay results shown in Table 2. […] These findings partially explain the influence of ADS10227 on the contractility of guinea pig ileum following electrical stimulation. […] In subsequent studies, we tried to clarify this.
# Male guinea pigs, weighing 300–400 g, were euthanized by a blow to the neck. A 20–30 cm length of the distal ileum, apart from the terminal 5 cm, was rapidly removed and placed in phosphate buffer at room temperature (pH 7.4) containing (mM) NaCl (136.9), KCl (2.6), KH2PO4 (1.47), Na2HPO4 (9.58), and indomethacin (1 × 10^–6 mol/L)). The intraluminal content was rinsed, and the isolated intestine was cut into 1.5–2 cm segments. The preparations were mounted isotonically in a 20 mL organ bath filled with Tyrode’s buffer: composition (mM) NaCl (137), KCl (2.7), MgCl2·6H2O (1.0), CaCl2 (1.8), NaH2PO4·H2O (0.4), NaHCO3 (11.9), glucose (5.61), and indomethacin (3 × 10^–7 mol/L). The solution was continuously bubbled with a 95% O2:5% CO2 mixture and maintained at 37 °C under a constant load of 0.5 g (Hugo Sachs Hebel–Messvorsatz (Tl-2)/HF-modem; Hugo Sachs Elektronik, Hugstetten, Germany) connected to a pen recorder (Kipp & Zonen BD41, Delft, Holland). During an equilibration period of 40 min, Tyrode’s buffer was changed every 10 min. The first cumulative concentration–response curve was determined for methacholine (10 nM to 3 mM) at increasing concentrations spaced by 3- or 3.3-fold. The second to the fourth (or fifth) curves were measured in the presence of an increasing concentration of antagonist (incubation time 20 min). The pA2 values were calculated according to Arunlakshana and Schild.[37] Statistical analysis was carried out with the Students’ t test. In all tests, a p < 0.05 was considered statistically significant.
compound,measurement,value
N=C(N)N(CCCCN1CCN(CCCCCCCOc2ccccc2)CC1)Cc1ccccc1 [ADS1017],M2R/M3R pA2 gpi ± sem,6.36 and 6.36 ±0.10
"N=C(N)N(CCCCN1CCN(C[C@H]2CC[C@@H](COc3ccccc3)CC2)CC1)Cc1ccccc1 [ADS10227, 1-{4-{4-{[4-(phenoxymethyl)cyclohexyl]methyl}piperazin-1-yl}but-1-yl}-1-(benzyl)guanidine]",M2R/M3R pA2 gpi ± sem,6.97±0.09
[H]/N=C(/N)N(CCCCN1CCN(CC2CCC(COc3ccccc3)CC2)CC1)Cc1ccc(C(F)(F)F)cc1 (stereo not drawn) [ADS10239],M2R/M3R pA2 gpi ± sem,6.46±0.11
